In one test the target is T1, FAAH (Homo sapiens, UniProt O00519).
T1 sequence (O00519 1-579): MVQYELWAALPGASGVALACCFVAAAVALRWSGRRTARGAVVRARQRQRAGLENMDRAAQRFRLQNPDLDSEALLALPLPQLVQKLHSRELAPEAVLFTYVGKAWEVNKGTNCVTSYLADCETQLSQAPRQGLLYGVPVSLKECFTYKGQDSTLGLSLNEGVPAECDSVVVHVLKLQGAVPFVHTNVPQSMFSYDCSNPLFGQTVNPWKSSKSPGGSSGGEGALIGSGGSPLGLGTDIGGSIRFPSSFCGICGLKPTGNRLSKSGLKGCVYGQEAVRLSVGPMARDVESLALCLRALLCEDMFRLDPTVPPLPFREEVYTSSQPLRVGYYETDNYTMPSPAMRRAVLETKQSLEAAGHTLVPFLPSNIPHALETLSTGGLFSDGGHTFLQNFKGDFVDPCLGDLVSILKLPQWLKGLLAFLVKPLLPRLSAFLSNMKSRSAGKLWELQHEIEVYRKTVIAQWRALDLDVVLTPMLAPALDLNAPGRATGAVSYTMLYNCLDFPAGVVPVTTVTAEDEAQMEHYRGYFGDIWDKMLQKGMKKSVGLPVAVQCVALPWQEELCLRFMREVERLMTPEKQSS
Nature of the test: Assay Method 1: FAAH assay, 3H-anandamide hydrolysis in cell homogenate. The following applies: T84 or transfected SK-N-MC cell homogenate, 80 nM 3H-AEA, 1 h rt, > = solubility limit or highest concentration tested. Further details: expressed in transfected cells. The format is biochemical. As for the experimental part:
A. Transfection of Cells with Human FAAH
(§1) A 10-cm tissue culture dish with a confluent monolayer of SK-N-MC cells was split 2 days (d) prior to transfection. Using sterile technique, the media was removed and the cells were detached from the dish by the addition of trypsin. One fifth of the cells were then placed onto a new 10-cm dish. Cells were grown in a 37° C. incubator with 5% CO2 in Minimal Essential Media Eagle with 10% Fetal Bovine Serum. After 2 d, cells were approximately 80% confluent. These cells were removed from the dish with trypsin and pelleted in a clinical centrifuge. The pellet was re-suspended in 400 μL complete media and transferred to an electroporation cuvette with a 0.4 cm gap between the electrodes. Supercoiled human FAAH cDNA (1 μg) was added to the cells and mixed. The voltage for the electroporation was set at 0.25 kV, and the capacitance was set at 960 μF. After electroporation, the cells were diluted into complete media (10 mL) and plated onto four 10-cm dishes. Because of the variability in the efficiency of electroporation, four different concentrations of cells were plated. The ratios used were 1:20, 1:10, and 1:5, with the remainder of the cells being added to the fourth dish. The cells were allowed to recover for 24 h before adding the selection media (complete media with 600 μg/mL G418). After 10 d, dishes were analyzed for surviving colonies of cells. Dishes with well-isolated colonies were used. Cells from individual colonies were isolated and tested.
(§2) The assay mixture consisted of 50 μL of the cell homogenate, 10 μL of the test compound, and 40 μL of anandamide [1-^3H-ethanolamine] (^3H-AEA, Perkin-Elmer, 10.3 Ci/mmol), which was added last, for a final tracer concentration of 80 nM. The reaction mixture was incubated at rt for 1 h. During the incubation, 96-well Multiscreen filter plates (catalog number MAFCNOB50; Millipore, Bedford, Mass., USA) were loaded with 25 μL of activated charcoal (Multiscreen column loader, catalog number MACL09625, Millipore) and washed once with 100 μL of MeOH. Also during the incubation, 96-well DYNEX MicroLite plates (catalog number NL510410) were loaded with 100 μL of MicroScint40 (catalog number 6013641, Packard Bioscience, Meriden, Conn., USA). After the 1 h incubation, 60 μL of the reaction mixture were transferred to the charcoal plates, which were then assembled on top of the DYNEX plates using Centrifuge Alignment Frames (catalog number MACF09604, Millipore). The unbound labeled ethanolamine was centrifuged through to the bottom plate (5 min at 2000 rpm), which was preloaded with the scintillant, as described above. The plates were sealed and left at rt for 1 h before counting on a Hewlett Packard TopCount.
(§3) Where activity is shown as greater than (>) a particular value, the value is the solubility limit of the compound in the assay medium or the highest concentration tested in the assay.

In another test the target is T2, Rat FAAH (Rattus norvegicus, UniProt P97612).
T2 construct: expressed in transfected cells
T2 sequence (P97612 1-579): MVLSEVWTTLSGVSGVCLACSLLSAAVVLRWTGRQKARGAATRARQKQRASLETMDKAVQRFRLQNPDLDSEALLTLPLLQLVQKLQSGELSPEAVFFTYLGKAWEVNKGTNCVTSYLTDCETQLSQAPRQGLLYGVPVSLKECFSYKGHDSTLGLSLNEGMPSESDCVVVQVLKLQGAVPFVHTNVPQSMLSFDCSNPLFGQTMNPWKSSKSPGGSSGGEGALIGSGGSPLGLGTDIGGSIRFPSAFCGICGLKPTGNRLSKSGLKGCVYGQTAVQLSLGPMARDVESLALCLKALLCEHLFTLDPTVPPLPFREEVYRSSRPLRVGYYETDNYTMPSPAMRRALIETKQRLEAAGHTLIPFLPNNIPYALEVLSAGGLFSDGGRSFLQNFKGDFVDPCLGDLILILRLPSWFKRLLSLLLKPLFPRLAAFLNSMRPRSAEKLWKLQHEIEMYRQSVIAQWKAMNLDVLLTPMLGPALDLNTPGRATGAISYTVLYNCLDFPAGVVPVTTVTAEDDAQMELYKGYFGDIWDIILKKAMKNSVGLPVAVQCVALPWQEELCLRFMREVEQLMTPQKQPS
As to the kind of experiment: Assay Method 2: FAAH assay, 3H-anandamide hydrolysis in cell homogenate. The following applies: transfected SK-N-MC cell homogenate, 80 nM 3H-AEA, 1 h rt, > = solubility limit or highest concentration tested. The format is biochemical. As to the method: A. Transfection of Cells with Rat FAAH
as §1, with “rat” for “human”
as §2, with “incubated at […] for 1” for “incubated at rt for 1”, “labeled ethanolamine . was centrifuged” for “labeled ethanolamine was centrifuged”
as §3

A word on the IC50: it is the concentration that gives 50% inhibition. Lower therefore signals higher potency.

Take `COc1ccc(CN2CCC(C(=O)c3ncco3)CC2)cc1` [Example 61, [1-(4-Methoxy-benzyl)-piperidin-4-yl]-oxazol-2-yl-methanone]: the IC50 on FAAH came out at 208 nM; against Rat FAAH it was 1200 nM.

As to `O=C(c1ncco1)C1CCN(Cc2ccncc2)CC1` [Example 58, Oxazol-2-yl-(1-pyridin-4-ylmethyl-piperidin-4-yl)-methanone], the IC50 on Rat FAAH was greater than 10000 nM.

With `O=C(c1ncco1)C1CCN(Cc2ccc3ccccc3n2)CC1` [Example 84, Oxazol-2-yl-(1-quinolin-2-ylmethyl-piperidin-4-yl)-methanone], the values for the IC50 on FAAH and against Rat FAAH were 13 nM and 23 nM, respectively.

On to `O=C(c1ncco1)C1CCN(Cc2ccc(Oc3ccccc3)cc2)CC1` [Example 57, Oxazol-2-yl-[1-(4-phenoxy-benzyl)-piperidin-4-yl]-methanone], for which the IC50 on FAAH was determined as 210 nM; against Rat FAAH, 532 nM.

As to `CC(C)COc1cccc(CN2CCC(C(=O)c3ncco3)CC2)c1` [Example 16, [1-(3-Isobutoxy-benzyl)-piperidin-4-yl]-oxazol-2-yl-methanone], the half-maximal inhibitory concentration (IC50) was 31 nM against FAAH and 975 nM against Rat FAAH.

Compound `CC(c1ccccc1)N1CCC(C(=O)c2ncco2)CC1` (centres unmarked) [Example 90, Oxazol-2-yl-[1-(1-phenyl-ethyl)-piperidin-4-yl]-methanone] yielded an IC50 on Rat FAAH greater than 10000 nM.

With `O=C(c1ncco1)C1CCN(Cc2ccccn2)CC1` [Example 60, Oxazol-2-yl-(1-pyridin-2-ylmethyl-piperidin-4-yl)-methanone], the 50% inhibitory concentration (IC50) is 1300 nM on FAAH and greater than 10000 nM against Rat FAAH.

For the compound `O=C(c1ncco1)C1CCN(Cc2ccc(F)cc2)CC1` [Example 30, [1-(4-Fluoro-benzyl)-piperidin-4-yl]-oxazol-2-yl-methanone], the IC50 against FAAH amounted to 148 nM; against Rat FAAH, 873 nM.

`COc1cccc(C(=O)N2CCC(C(=O)c3ncco3)CC2)c1` [Example 7, [1-(3-Methoxy-benzoyl)-piperidin-4-yl]-oxazol-2-yl-methanone]: the IC50 at Rat FAAH is greater than 10000 nM.

As to `O=C(c1ncco1)C1CCN(C(=O)c2ccccc2Cl)CC1` [Example 13, [1-(2-Chloro-benzoyl)-piperidin-4-yl]-oxazol-2-yl-methanone], the IC50 against Rat FAAH was greater than 10000 nM.

As to `CC(C)Oc1cccc(CN2CCC(C(=O)c3ncco3)CC2)c1` [Example 24, [1-(3-Isopropoxy-benzyl)-piperidin-4-yl]-oxazol-2-yl-methanone], at FAAH, the midpoint of inhibition, the IC50, lay at 118 nM. In other words, the sub-micromolar range.

`O=C(c1ncco1)C1CCN(Cc2ccc(OC3CCCCC3)cc2)CC1` [Example 21, [1-(4-Cyclohexyloxy-benzyl)-piperidin-4-yl]-oxazol-2-yl-methanone] displayed an IC50 against FAAH of 750 nM.

As for `O=C(c1ncco1)C1CCN(S(=O)(=O)c2ccccc2Cl)CC1` [Example 6, [1-(2-Chloro-benzenesulfonyl)-piperidin-4-yl]-oxazol-2-yl-methanone], the IC50 against FAAH worked out at 5000 nM. This IC50 is about 6.7-fold higher than that of the compound before.

In turn, `CN(C)c1ccc(CN2CCC(C(=O)c3ncco3)CC2)cc1` [Example 20, [1-(4-Dimethylamino-benzyl)-piperidin-4-yl]-oxazol-2-yl-methanone] returned an IC50 against FAAH of 200 nM.

Compound `O=C(c1ncco1)C1CCN(Cc2cccnc2)CC1` [Example 59, Oxazol-2-yl-(1-pyridin-3-ylmethyl-piperidin-4-yl)-methanone] gave an IC50 against Rat FAAH greater than 10000 nM.

For `O=C(c1ncco1)C1CCN(C(=O)c2cccc(Cl)c2)CC1` [Example 12, [1-(3-Chloro-benzoyl)-piperidin-4-yl]-oxazol-2-yl-methanone], on FAAH, the IC50 came out at 9000 nM.

Compound `COc1ccc(S(=O)(=O)N2CCC(C(=O)c3ncco3)CC2)cc1` [Example 2, [1-(4-Methoxy-benzenesulfonyl)-piperidin-4-yl]-oxazol-2-yl-methanone] gave an IC50 at Rat FAAH greater than 10000 nM.

On FAAH, `CC(C)COc1ccc(CN2CCC(C(=O)c3ncco3)CC2)cc1` [Example 17, [1-(4-Isobutoxy-benzyl)-piperidin-4-yl]-oxazol-2-yl-methanone] registered an IC50 of 180 nM.

Compound `CCOc1ccc(CN2CCC(C(=O)c3ncco3)CC2)cc1` [Example 28, [1-(4-Ethoxy-benzyl)-piperidin-4-yl]-oxazol-2-yl-methanone] gave an IC50 against FAAH of 772 nM. This IC50 is about 4.3-fold higher than that of the compound before.

Compound `COc1cccc(S(=O)(=O)N2CCC(C(=O)c3ncco3)CC2)c1` [Example 3, [1-(3-Methoxy-benzenesulfonyl)-piperidin-4-yl]-oxazol-2-yl-methanone] showed an IC50 against FAAH of 8000 nM.

The record behind these values is patent publication US20100292266A1, “Oxazolyl Piperidine Modulators of Fatty Acid Amide Hydrolase” (priority 2006, published 2010).
